{"source": "patent US20260092083A1", "about": "“VANCOMYCIN DERIVATIVES WITH SIDEROPHORE MODIFICATION AS NOVEL REPURPOSED ANTIBIOTICS TO COMBAT GRAM-NEGATIVE BACTERIAL INFECTION” (priority 2023, published 2026)", "type_in_all_cases": "cell-based", "key": {"[1]": {"tested_on": "K. pneumoniae ATCC 700603", "assay": "Broth microdilution MIC, K. pneumoniae", "details": "Klebsiella pneumoniae, ATCC700603, read-out: MIC (μg/mL) Gram-negative KPN", "procedure": "(§1) The test compounds including vancomycin hydrochloride were supplied as a 6.4 mg/mL solution in 100% dimethyl sulfoxide (DMSO) aliquoted into individual wells of a 96-well plate (50 μL per well). […] Standardized inocula were added to the MIC test plates, which were incubated for the prescribed times at 35° C. The N. gonorrhoeae strain was incubated in an atmosphere containing 5% CO2.\n(§2) The final optical density of each well at 600 nm was measured using a Tecan Spark plate reader. The compound concentration versus OD600 data were then curve fit using custom software. An MIC value was defined as the lowest compound concentration that led to an OD600 value≤0.15 for the E. coli, K. pneumoniae, P. aeruginosa, A. baumannii, or S. aureus strains. For the N. gonorrhoeae strain, an OD600 value≤0.19 was used as a cutoff to define an MIC value; this higher cut-off value was required because the N. gonorrhoeae MIC plates were covered with plastic seals that increased the background OD600 value.\n(§3) JMI Laboratories followed current CLSI quality assurance practices when performing the susceptibility tests. MIC values were validated by concurrently testing the CLSI-recommended ATCC QC reference strains S. aureus ATCC 29213 and K. pneumoniae ATCC 700603. The inoculum density during susceptibility testing was monitored by bacterial colony counts. Where applicable, QC ranges for tested reference strains were those ranges approved or published by CLSI for testing in CAMHB. […] Importantly, the CLSI reference method for testing N. gonorrhoeae is the agar dilution MIC method, which was not used here. Thus, CLSI MIC QC ranges for N. gonorrhoeae could not be applied to the antimicrobials studied here.\n(§4) Abbreviations: EC, E. coli (wild-type) BW25113; EC efflux^−, E. coli (tolC) JW5503-1; KPN, K. pneumoniae ATCC 700603; PSA, P. aeruginosa PAO1; PSA efflux^−, P. aeruginosa (multi-pump-gene mutant) PAM1626; ACB, A. baumannii JMI #1186154; GC, N. gonorrhoeae WHO-Z; SA, S. aureus ATCC 29213. Broth microdilution MIC values were measured in iron-depleted CAMHB for all strains except for GC, which was tested in fastidious broth."}, "N. gonorrhoeae WHO-Z": {"tested_on": "N. gonorrhoeae WHO-Z", "assay": "Broth microdilution MIC, N. gonorrhoeae", "details": "Neisseria gonorrhoeae, read-out: MIC (μg/mL) Gram-negative GC", "procedure": "as §1, §2, §3, §4"}, "P. aeruginosa PAO1": {"tested_on": "P. aeruginosa PAO1", "assay": "Broth microdilution MIC, P. aeruginosa", "details": "Pseudomonas aeruginosa, iron-depleted CAMHB, OD600 ≤0.15, read-out: MIC (μg/mL) Gram-negative PSA", "procedure": "as §1, §2, §3, §4"}, "[2]": {"tested_on": "A. baumannii JMI #1186154", "assay": "Broth microdilution MIC, A. baumannii", "details": "Acinetobacter baumannii, iron-depleted CAMHB, OD600 ≤0.15, read-out: MIC (μg/mL) Gram-negative ACB", "procedure": "as §1, §2, §3, §4"}, "S. aureus ATCC 29213": {"tested_on": "S. aureus ATCC 29213", "assay": "Broth microdilution MIC, S. aureus", "details": "Staphylococcus aureus, ATCC29213, iron-depleted CAMHB, OD600 ≤0.15, read-out: MIC (μg/mL) Gram positive SA", "procedure": "as §1, §2, §3, §4"}, "[3]": {"tested_on": "P. aeruginosa (multi-pump-gene mutant) PAM1626", "assay": "Broth microdilution MIC, P. aeruginosa efflux-deficient", "details": "Pseudomonas aeruginosa, read-out: MIC (μg/mL) Gram-negative PSA Efflux", "procedure": "as §1, §2, §3, §4"}, "[4]": {"tested_on": "E. coli (wild-type) BW25113", "assay": "Broth microdilution MIC, E. coli wild-type", "details": "Escherichia coli, iron-depleted CAMHB, OD600 ≤0.15, read-out: MIC (μg/mL) Gram-negative EC", "procedure": "as §1, §2, §3, §4"}, "E. coli (tolC) JW5503-1": {"tested_on": "E. coli (tolC) JW5503-1", "assay": "Broth microdilution MIC, E. coli efflux-deficient (tolC)", "details": "Escherichia coli, read-out: MIC (μg/mL) Gram-negative EC Efflux", "procedure": "as §1, §2, §3, §4"}}, "data": [{"compound": "CNC(CC(C)C)C(=O)NC1C(=O)NC(CC(N)=O)C(=O)NC2C(=O)NC3C(=O)NC(C(=O)N[C@H](C(=O)NCCc4cn(CCNC(=O)c5cccc(O)c5O)nn4)c4cc(O)cc(O)c4-c4cc3ccc4O)C(O)c3ccc(c(Cl)c3)Oc3cc2cc(c3OC2OC(CO)C(O)C(O)C2OC2CC(C)(N)C(O)C(C)O2)Oc2ccc(cc2Cl)C1O", "note": "(stereo partly drawn) [Compound 15]", "values": [{"measurement": "MIC", "setting": "[1]", "value": "> 64", "unit": "µg/mL"}, {"measurement": "MIC", "setting": "N. gonorrhoeae WHO-Z", "value": "> 64", "unit": "µg/mL"}, {"measurement": "MIC", "setting": "P. aeruginosa PAO1", "value": "> 64", "unit": "µg/mL"}, {"measurement": "MIC", "setting": "[2]", "value": 16, "unit": "µg/mL"}, {"measurement": "MIC", "setting": "S. aureus ATCC 29213", "value": 4, "unit": "µg/mL"}, {"measurement": "MIC", "setting": "[3]", "value": "> 64", "unit": "µg/mL"}, {"measurement": "MIC", "setting": "[4]", "value": "> 64", "unit": "µg/mL"}, {"measurement": "MIC", "setting": "E. coli (tolC) JW5503-1", "value": "> 64", "unit": "µg/mL"}]}, {"compound": "CC(C)CC(C(=O)NC1C(=O)NC(CC(N)=O)C(=O)NC2C(=O)NC3C(=O)NC(C(=O)N[C@H](C(=O)O)c4cc(O)cc(O)c4-c4cc3ccc4O)C(O)c3ccc(c(Cl)c3)Oc3cc2cc(c3OC2OC(CO)C(O)C(O)C2OC2CC(C)(N)C(O)C(C)O2)Oc2ccc(cc2Cl)C1O)N(C)CCCc1cn(CCCNC(=O)c2ccc(O)c(O)c2Cl)nn1", "note": "(stereo partly drawn) [Compound 32]", "values": [{"measurement": "MIC", "setting": "[1]", "value": "> 64", "unit": "µg/mL"}, {"measurement": "MIC", "setting": "N. gonorrhoeae WHO-Z", "value": "> 64", "unit": "µg/mL"}, {"measurement": "MIC", "setting": "P. aeruginosa PAO1", "value": "> 64", "unit": "µg/mL"}, {"measurement": "MIC", "setting": "[2]", "value": 32, "unit": "µg/mL"}, {"measurement": "MIC", "setting": "S. aureus ATCC 29213", "value": 32, "unit": "µg/mL"}, {"measurement": "MIC", "setting": "[3]", "value": "> 64", "unit": "µg/mL"}, {"measurement": "MIC", "setting": "[4]", "value": "> 64", "unit": "µg/mL"}, {"measurement": "MIC", "setting": "E. coli (tolC) JW5503-1", "value": "> 64", "unit": "µg/mL"}]}, {"compound": "CNC(CC(C)C)C(=O)NC1C(=O)NC(CC(N)=O)C(=O)NC2C(=O)NC3C(=O)NC(C(=O)N[C@H](C(=O)O)c4cc(O)c(CNCCNC(=O)c5cccc(O)c5O)c(O)c4-c4cc3ccc4O)C(O)c3ccc(c(Cl)c3)Oc3cc2cc(c3OC2OC(CO)C(O)C(O)C2OC2CC(C)(N)C(O)C(C)O2)Oc2ccc(cc2Cl)C1O", "note": "(stereo partly drawn) [Compound 24]", "values": [{"measurement": "MIC", "setting": "[1]", "value": "> 64", "unit": "µg/mL"}, {"measurement": "MIC", "setting": "N. gonorrhoeae WHO-Z", "value": "> 64", "unit": "µg/mL"}, {"measurement": "MIC", "setting": "P. aeruginosa PAO1", "value": "> 64", "unit": "µg/mL"}, {"measurement": "MIC", "setting": "[2]", "value": 8, "unit": "µg/mL"}, {"measurement": "MIC", "setting": "S. aureus ATCC 29213", "value": 32, "unit": "µg/mL"}, {"measurement": "MIC", "setting": "[3]", "value": "> 64", "unit": "µg/mL"}, {"measurement": "MIC", "setting": "[4]", "value": "> 64", "unit": "µg/mL"}, {"measurement": "MIC", "setting": "E. coli (tolC) JW5503-1", "value": "> 64", "unit": "µg/mL"}]}, {"compound": "CN[C@H](CC(C)C)C(=O)N[C@H]1C(=O)N[C@@H](CC(N)=O)C(=O)N[C@H]2C(=O)N[C@H]3C(=O)N[C@H](C(=O)N[C@H](C(=O)NCCCCCNC(=O)c4ccc(O)c(O)c4Cl)c4cc(O)cc(O)c4-c4cc3ccc4O)[C@H](O)c3ccc(c(Cl)c3)Oc3cc2cc(c3O[C@@H]2O[C@H](CO)C(O)C(O)[C@H]2O[C@H]2CC(C)(N)[C@H](O)[C@H](C)O2)Oc2ccc(cc2Cl)[C@H]1O", "note": "(stereo partly drawn) [Compound 6]", "values": [{"measurement": "MIC", "setting": "[1]", "value": "> 64", "unit": "µg/mL"}, {"measurement": "MIC", "setting": "N. gonorrhoeae WHO-Z", "value": "> 64", "unit": "µg/mL"}, {"measurement": "MIC", "setting": "P. aeruginosa PAO1", "value": "> 64", "unit": "µg/mL"}, {"measurement": "MIC", "setting": "[2]", "value": 4, "unit": "µg/mL"}, {"measurement": "MIC", "setting": "S. aureus ATCC 29213", "value": 4, "unit": "µg/mL"}, {"measurement": "MIC", "setting": "[3]", "value": "> 64", "unit": "µg/mL"}, {"measurement": "MIC", "setting": "[4]", "value": 64, "unit": "µg/mL"}, {"measurement": "MIC", "setting": "E. coli (tolC) JW5503-1", "value": "> 64", "unit": "µg/mL"}]}, {"compound": "CN[C@H](CC(C)C)C(=O)N[C@H]1C(=O)N[C@@H](CC(N)=O)C(=O)N[C@H]2C(=O)N[C@H]3C(=O)N[C@H](C(=O)N[C@H](C(=O)NCCCNC(=O)c4ccc(O)c(O)c4Cl)c4cc(O)cc(O)c4-c4cc3ccc4O)[C@H](O)c3ccc(c(Cl)c3)Oc3cc2cc(c3O[C@@H]2O[C@H](CO)C(O)C(O)[C@H]2O[C@H]2CC(C)(N)[C@H](O)[C@H](C)O2)Oc2ccc(cc2Cl)[C@H]1O", "note": "(stereo partly drawn) [Compound 4]", "values": [{"measurement": "MIC", "setting": "[1]", "value": "> 64", "unit": "µg/mL"}, {"measurement": "MIC", "setting": "N. gonorrhoeae WHO-Z", "value": "> 64", "unit": "µg/mL"}, {"measurement": "MIC", "setting": "P. aeruginosa PAO1", "value": "> 64", "unit": "µg/mL"}, {"measurement": "MIC", "setting": "[2]", "value": 1, "unit": "µg/mL"}, {"measurement": "MIC", "setting": "S. aureus ATCC 29213", "value": 2, "unit": "µg/mL"}, {"measurement": "MIC", "setting": "[3]", "value": "> 64", "unit": "µg/mL"}, {"measurement": "MIC", "setting": "[4]", "value": 8, "unit": "µg/mL"}, {"measurement": "MIC", "setting": "E. coli (tolC) JW5503-1", "value": "> 64", "unit": "µg/mL"}]}, {"compound": "CNC(CC(C)C)C(=O)N[C@H]1C(=O)N[C@@H](CC(N)=O)C(=O)N[C@H]2C(=O)N[C@H]3C(=O)N[C@H](C(=O)N[C@@H](C(=O)NCCNC(=O)c4ccc(O)c(O)c4Cl)c4cc(O)cc(O)c4-c4cc3ccc4O)[C@H](O)c3ccc(c(Cl)c3)Oc3cc2cc(c3OC2O[C@H](CO)C(O)C(O)[C@H]2O[C@H]2CC(C)(N)[C@H](O)C(C)O2)Oc2ccc(cc2Cl)[C@H]1O", "note": "(stereo in doubt) [Compound 3]", "values": [{"measurement": "MIC", "setting": "[1]", "value": "> 64", "unit": "µg/mL"}, {"measurement": "MIC", "setting": "N. gonorrhoeae WHO-Z", "value": "> 64", "unit": "µg/mL"}, {"measurement": "MIC", "setting": "P. aeruginosa PAO1", "value": "> 64", "unit": "µg/mL"}, {"measurement": "MIC", "setting": "[2]", "value": 2, "unit": "µg/mL"}, {"measurement": "MIC", "setting": "S. aureus ATCC 29213", "value": 4, "unit": "µg/mL"}, {"measurement": "MIC", "setting": "[3]", "value": "> 64", "unit": "µg/mL"}, {"measurement": "MIC", "setting": "[4]", "value": 16, "unit": "µg/mL"}, {"measurement": "MIC", "setting": "E. coli (tolC) JW5503-1", "value": "> 64", "unit": "µg/mL"}]}]}
